Results: paper PMC7156458, “Synthetic biology based construction of biological activity-related library of fungal decalin-containing diterpenoid pyrones” (Nature Communications, 2020)

Target: Aβ42 (Homo sapiens, UniProt P05067)
Assay: Th-T (thioflavin-T) assay of Aβ42 aggregation
Assay type: biochemical
Details: for Th-T fluorescence, mean of three wells: compound at 50

Chain of Aβ42 (P05067 672-713): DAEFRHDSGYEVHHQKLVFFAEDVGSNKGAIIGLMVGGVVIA

In the case of `C=C1CC[C@@H]2[C@](C)(CC[C@H]3O[C@H](C=C(C)C)C[C@@]23C)[C@@H]1Cc1c(OC)oc(CO)c(C(=O)OC)c1=O` [Compound 21], the “Th-T fluorescence, mean of three wells” value (reading M54 of time course) is reported as 0.2222, the “Th-T fluorescence, mean of three wells” value (reading M55 of time course) is reported as 0.2197 and the “Th-T fluorescence, mean of three wells” value (reading M56 of time course) is reported as 0.2209. For the same molecule, the “Th-T fluorescence, mean of three wells” value (reading M57 of time course) was 0.2237, the “Th-T fluorescence, mean of three wells” value (reading M58 of time course) was 0.2252 and the “Th-T fluorescence, mean of three wells” value (reading M59 of time course) was 0.2206. The “Th-T fluorescence, mean of three wells” value (reading M60 of time course) was 0.2276, the “Th-T fluorescence, mean of three wells” value (reading M61 of time course) was 0.2285 and the “Th-T fluorescence, mean of three wells” value (reading M62 of time course) was 0.2296. The “Th-T fluorescence of Aβ42 with compound, mean of three wells (Fig. 7a source data)” value (“Th-T fluorescence of Aβ42 with compound” for short) (concentration 10, unit not given, time-course reading M129) was 1.701, the “Th-T fluorescence of Aβ42 with compound” value (concentration 10, unit not given, time-course reading M130) was 1.706 and the “Th-T fluorescence of Aβ42 with compound” value (concentration 10, unit not given, time-course reading M131) was 1.73. The “Th-T fluorescence of Aβ42 with compound” value (concentration 10, unit not given, time-course reading M132) was 1.6977, the “Th-T fluorescence of Aβ42 with compound” value (concentration 10, unit not given, time-course reading M133) was 1.7165 and the “Th-T fluorescence of Aβ42 with compound” value (concentration 10, unit not given, time-course reading M134) was 1.726. For the same molecule, the “Th-T fluorescence of Aβ42 with compound” value (concentration 10, unit not given, time-course reading M135) was 1.717, the “Th-T fluorescence of Aβ42 with compound” value (concentration 10, unit not given, time-course reading M136) was 1.738 and the “Th-T fluorescence of Aβ42 with compound” value (concentration 10, unit not given, time-course reading M137) was 1.7043. The “Th-T fluorescence of Aβ42 with compound” value (concentration 10, unit not given, time-course reading M138) was 1.717, the “Th-T fluorescence of Aβ42 with compound” value (concentration 10, unit not given, time-course reading M139) was 1.708 and the “Th-T fluorescence of Aβ42 with compound” value (concentration 10, unit not given, time-course reading M140) was 1.723. For the same molecule, the “Th-T fluorescence of Aβ42 with compound” value (concentration 10, unit not given, time-course reading M141) was 1.719, the “Th-T fluorescence of Aβ42 with compound” value (concentration 10, unit not given, time-course reading M142) was 1.725 and the “Th-T fluorescence of Aβ42 with compound” value (concentration 10, unit not given, time-course reading M143) was 1.723. The “Th-T fluorescence of Aβ42 with compound” value (concentration 10, unit not given, time-course reading M144) was 1.716, the “Th-T fluorescence of Aβ42 with compound” value (concentration 10, unit not given, time-course reading M145) was 1.741 and the “Th-T fluorescence of Aβ42 with compound” value (concentration 20, unit not given, time-course reading M129) was 0.972. For the same molecule, the “Th-T fluorescence of Aβ42 with compound” value (concentration 20, unit not given, time-course reading M130) was 0.9564, the “Th-T fluorescence of Aβ42 with compound” value (concentration 20, unit not given, time-course reading M131) was 0.9524 and the “Th-T fluorescence of Aβ42 with compound” value (concentration 20, unit not given, time-course reading M132) was 0.9585. The “Th-T fluorescence of Aβ42 with compound” value (concentration 20, unit not given, time-course reading M133) was 0.9579, the “Th-T fluorescence of Aβ42 with compound” value (concentration 20, unit not given, time-course reading M134) was 0.9622 and the “Th-T fluorescence of Aβ42 with compound” value (concentration 20, unit not given, time-course reading M135) was 0.9636. For the same molecule, the “Th-T fluorescence of Aβ42 with compound” value (concentration 20, unit not given, time-course reading M136) was 0.9565, the “Th-T fluorescence of Aβ42 with compound” value (concentration 20, unit not given, time-course reading M137) was 0.947 and the “Th-T fluorescence of Aβ42 with compound” value (concentration 20, unit not given, time-course reading M138) was 0.9539. The “Th-T fluorescence of Aβ42 with compound” value (concentration 20, unit not given, time-course reading M139) was 0.9666, the “Th-T fluorescence of Aβ42 with compound” value (concentration 20, unit not given, time-course reading M140) was 0.9636 and the “Th-T fluorescence of Aβ42 with compound” value (concentration 20, unit not given, time-course reading M141) was 0.9513. For the same molecule, the “Th-T fluorescence of Aβ42 with compound” value (concentration 20, unit not given, time-course reading M142) was 0.9675, the “Th-T fluorescence of Aβ42 with compound” value (concentration 20, unit not given, time-course reading M143) was 0.9558 and the “Th-T fluorescence of Aβ42 with compound” value (concentration 20, unit not given, time-course reading M144) was 0.9694. The “Th-T fluorescence of Aβ42 with compound” value (concentration 20, unit not given, time-course reading M145) was 0.9486, the “Th-T fluorescence of Aβ42 with compound” value (concentration 50, unit not given, time-course reading M129) was 0.5005 and the “Th-T fluorescence of Aβ42 with compound” value (concentration 50, unit not given, time-course reading M130) was 0.4954. The “Th-T fluorescence of Aβ42 with compound” value (concentration 50, unit not given, time-course reading M131) was 0.4987, the “Th-T fluorescence of Aβ42 with compound” value (concentration 50, unit not given, time-course reading M132) was 0.5011 and the “Th-T fluorescence of Aβ42 with compound” value (concentration 50, unit not given, time-course reading M133) was 0.5033. For the same molecule, the “Th-T fluorescence of Aβ42 with compound” value (concentration 50, unit not given, time-course reading M134) was 0.5026, the “Th-T fluorescence of Aβ42 with compound” value (concentration 50, unit not given, time-course reading M135) was 0.5014 and the “Th-T fluorescence of Aβ42 with compound” value (concentration 50, unit not given, time-course reading M136) was 0.502. For the same molecule, the “Th-T fluorescence of Aβ42 with compound” value (concentration 50, unit not given, time-course reading M137) was 0.5003, the “Th-T fluorescence of Aβ42 with compound” value (concentration 50, unit not given, time-course reading M138) was 0.5022 and the “Th-T fluorescence of Aβ42 with compound” value (concentration 50, unit not given, time-course reading M139) was 0.5032. For the same molecule, the “Th-T fluorescence of Aβ42 with compound” value (concentration 50, unit not given, time-course reading M140) was 0.5012, the “Th-T fluorescence of Aβ42 with compound” value (concentration 50, unit not given, time-course reading M141) was 0.504 and the “Th-T fluorescence of Aβ42 with compound” value (concentration 50, unit not given, time-course reading M142) was 0.5037.
